Data set [1] is described as follows: Hμrel Low Clearance Assay. Type of data set: in vitro ADME, human. On the set-up: % of Control (intrinsic clearance relative to the control compound): tested at 1 µM. To be noted: HμRELhumanPool 96-well hepatic co-culture, human hepatic co-culture, 1 μM substrate, 0-72 hr incubation, control = geometric mean of 3 replicates. How it is done:
(§1) The Hμrel Low Clearance Assay was performed to determine the stability of deuterated compounds described herein and calculate changes in clearance relative to the control compound (undeuterated compound) that has the following structure:
(§2) HμRELhumanPool™ 96-well hepatic co-culture plates were media changed and cells were allowed to acclimatize at 37° C. for 20 hr. HμREL® incubation media (serum free) and test compound diluted from a 1000×DMSO stock (final substrate concentration 1 μM; final DMSO concentration 0.1%) were added to the HμREL© 96-well co-culture system at a final cell number of 30,000 cells per well to initiate the reaction. The final incubation volume was 80 μL per time point and two control compounds were included for reference (ketoprofen and prednisolone). All clearance assessments were performed in singlicate with the exception of the undeuterated control compound, which was tested in duplicate on two separate days for a total of 4 replicates. Each compound was incubated for 0, 2, 6, 24, 48 and 72 hr. The reactions were terminated by transferring 60 μL of incubate to 180 μL acetonitrile containing internal standard at the appropriate time points. The crash plates were centrifuged at 3000 rpm at 4° C. for 20 min to precipitate residual protein. Following protein precipitation, sample supernatants were combined in cassettes of up to 4 compounds and analyzed using generic LCMS/MS conditions.
(§3) LC-MS/MS chromatograms were analyzed by peak area ratio (test article peak area/internal standard peak area) and natural log transformed, and plotted against time. The slope of the line was determined to calculate elimination rate constant. Subsequently, half-life (t1/2) and intrinsic clearance (CLint) were calculated using the following equations: […]
(§4) Average clearance of the control compound was determined by taking the geometric mean of 3 of the four replicates. The fourth replicate was excluded from the average determination as an outlier.

Data set [2] relates to HμRELhumanPool 96-well hepatic co-culture. Nature of the data set: Hμrel Low Clearance Assay. Details: % of Control (intrinsic clearance relative to the control compound): tested at 1 µM. Type of data set: in vitro ADME, human. The settings on record: for Half-Life: human hepatic co-culture, 1 μM substrate, 0-72 hr incubation; for % of Control (intrinsic clearance relative to the control compound): observed CLint divided by average CLint of undeuterated control compound. How it is done: as §1, §2, §3, §4

For data set [3], the target named is T1, Recombinant CYP3A4 Supersomes (Homo sapiens, UniProt P08684).
T1 construct: purchased
T1 sequence (P08684 whole entry): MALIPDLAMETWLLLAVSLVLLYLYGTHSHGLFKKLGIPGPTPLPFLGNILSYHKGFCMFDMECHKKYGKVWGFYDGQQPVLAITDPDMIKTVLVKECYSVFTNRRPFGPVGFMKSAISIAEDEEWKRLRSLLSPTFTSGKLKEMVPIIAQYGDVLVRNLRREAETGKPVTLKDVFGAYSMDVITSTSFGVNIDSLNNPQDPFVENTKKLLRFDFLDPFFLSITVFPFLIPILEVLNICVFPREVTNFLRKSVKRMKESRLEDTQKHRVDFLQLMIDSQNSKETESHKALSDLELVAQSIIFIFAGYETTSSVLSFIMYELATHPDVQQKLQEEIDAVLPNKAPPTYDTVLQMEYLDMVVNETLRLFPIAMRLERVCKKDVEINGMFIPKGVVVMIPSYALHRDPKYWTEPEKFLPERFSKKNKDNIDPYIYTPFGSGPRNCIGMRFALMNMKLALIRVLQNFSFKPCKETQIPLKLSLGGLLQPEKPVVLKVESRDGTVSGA
Nature of the data set: Recombinant CYP3A4 Clearance Assay. The settings on record: for % of Control (intrinsic clearance relative to the control compound): observed CLint divided by average CLint of undeuterated control compound; for Half-Life / CLint: recombinant CYP3A4 50 pmol/mL, 1 μM substrate, NADPH; for Half-Life: 0-120 minutes; for CLint: control = geometric mean of 3 replicates. Type of data set: in vitro ADME. How it is done: The CYP3A4 Clearance Assay was performed to determine the stability of deuterated compounds described herein and calculate changes in clearance relative to the control compound (undeuterated compound) that has the following structure:
Recombinant CYP3A4 Supersomes were prepared in 100 mM potassium phosphate buffer (50 pmol/mL final recombinase) and 80 μL aliquots were delivered per well to 96-well reaction plates containing 10 μL/well stock working solution containing substrate at 10× final concentration in 0.1:9.9:90 DMSO:ACN:100 mM phosphate buffer. Final substrate concentration during incubation was 1 μM. Reaction mixtures were pre-incubated at 37° C. for 10 minutes, prior to addition of 10 μL/well of NADPH regenerating system to initiate the reaction (β-Nicotinamide adenine dinucleotide phosphate) or 100 mM phosphate as a buffer control.
Clearance assessments were performed for test compounds in singlicate except for the control compound, which was tested in triplicate. Incubations were maintained at 37° C. for 0, 5, 15, 30, 45, 60, 90, and 120 minutes (or 0 and 120 minutes for buffer control). The reactions were terminated with 3× volume of cold (4° C.) acetonitrile (ACN) containing 200 ng/mL tolbutamide and 200 ng/mL labetalol as internal standards (IS). The crash plates were centrifuged at 4000 rpm at 4° C. for 20 min to precipitate residual protein. Following protein precipitation, sample supernatants were harvested and 3× volume of HPLC grade water was added to each sample for chromatography purposes. Plates were sealed and shaken for 10 minutes prior to LC-MS/MS analysis using generic LCMS/MS conditions.
as §3
Average intrinsic clearance of the control compound was determined by taking the geometric mean of 3 replicates.

The structures appear in SMILES notation.

Usually hepatocyte CLint stands for a measure of how fast metabolising enzymes remove a compound, apart from limits set by blood flow.

Turning to `[2H]C([2H])([2H])C(C)(NC(=O)CN1CCC(CNC(=O)c2cc(F)cc(Cl)c2)CC1)C([2H])([2H])[2H]` [Compound 14, 3-chloro-5-fluoro-N-[[1-[2-oxo-2-[[2,2,2-trideuterio-1-methyl-1-(trideuteriomethyl)ethyl]amino]ethyl]-4-piperidyl]methyl]benzamide], the hepatocyte CLint at 1 μM in data set [1] (human) came out at 0.885 µL/min/1e6 cells. In addition, in data set [2], the Half-Life came to 34.83 h and the “% of Control (intrinsic clearance relative to the control compound)” value stood at 62.5%. Further, in data set [3], the “% of Control (intrinsic clearance relative to the control compound)” value turned out to be 105%, the Half-Life was 0.125 h and the CLint amounted to 1.85 µL/min/pmol.

`[2H]C([2H])(C(=O)NC(C([2H])([2H])[2H])(C([2H])([2H])[2H])C([2H])([2H])[2H])N1CCC(CNC(=O)c2cc(F)cc(Cl)c2)CC1` [Compound 15, 3-chloro-N-[[1-[1,1-dideuterio-2-oxo-2-[[2,2,2-trideuterio-1,1-bis(trideuteriomethyl)ethyl]amino]ethyl]-4-piperidyl]methyl]-5-fluoro-benzamide] displayed a hepatocyte CLint at 1 μM in data set [1] (human) of 1.35 µL/min/1e6 cells. Further, in data set [2], the Half-Life was 22.67 h and the “% of Control (intrinsic clearance relative to the control compound)” value worked out at 95.4%. Besides, in data set [3], the “% of Control (intrinsic clearance relative to the control compound)” value stood at 82.9%, the Half-Life is 0.158 h and the CLint came to 1.46 µL/min/pmol.

Consider `[2H]C1([2H])CC(CNC(=O)c2cc(F)cc(Cl)c2)CC([2H])([2H])N1CC(=O)NC(C([2H])([2H])[2H])(C([2H])([2H])[2H])C([2H])([2H])[2H]` [Compound 16, 3-chloro-5-fluoro-N-[[2,2,6,6-tetradeuterio-1-[2-oxo-2-[[2,2,2-trideuterio-1,1-bis(trideuteriomethyl)ethyl]amino]ethyl]-4-piperidyl]methyl]benzamide], for which the hepatocyte CLint at 1 μM in data set [1] was 1.08 µL/min/1e6 cells. Moreover, in data set [2], the Half-Life was 28.33 h and the “% of Control (intrinsic clearance relative to the control compound)” value stood at 76.3%. Also, in data set [3], the “% of Control (intrinsic clearance relative to the control compound)” value came out at 61.4%, the Half-Life stood at 0.213 h and the CLint is 1.08 µL/min/pmol.

As to `[2H]C([2H])(C(=O)NC(C)(C([2H])([2H])[2H])C([2H])([2H])[2H])N1CCC(CNC(=O)c2cc(F)cc(Cl)c2)CC1` [Compound 17, 3-chloro-N-[[1-[1,1-dideuterio-2-oxo-2-[[2,2,2-trideuterio-1-methyl-1-(trideuteriomethyl)ethyl]amino]ethyl]-4-piperidyl]methyl]-5-fluoro-benzamide], in data set [1] (human), the intrinsic metabolic clearance (hepatocyte CLint) at 1 μM came to 1.18 µL/min/1e6 cells. Besides, in data set [2], the Half-Life was 26.17 h and the “% of Control (intrinsic clearance relative to the control compound)” value is listed as 83.4%. In data set [3], the “% of Control (intrinsic clearance relative to the control compound)” value worked out at 72.2%, the Half-Life came to 0.182 h and the CLint was determined as 1.27 µL/min/pmol.

With `[2H]C1([2H])CC(CNC(=O)c2cc(F)cc(Cl)c2)CC([2H])([2H])N1CC(=O)NC(C)(C([2H])([2H])[2H])C([2H])([2H])[2H]` [Compound 19, 3-chloro-5-fluoro-N-[[2,2,6,6-tetradeuterio-1-[2-oxo-2-[[2,2,2-trideuterio-1-methyl-1-(trideuteriomethyl)ethyl]amino]ethyl]-4-piperidyl]methyl]benzamide], the hepatocyte CLint at 1 μM in data set [1] (human) amounted to 0.718 µL/min/1e6 cells. In addition, in data set [2], the Half-Life was determined as 43 h and the “% of Control (intrinsic clearance relative to the control compound)” value came to 51.5%. Besides, in data set [3], the “% of Control (intrinsic clearance relative to the control compound)” value was 62.2%, the Half-Life was found to be 0.212 h and the CLint was 1.09 µL/min/pmol.

On to `[2H]C([2H])([2H])C(C)(NC(=O)CN1C([2H])([2H])C([2H])([2H])C([2H])(CNC(=O)c2cc(F)cc(Cl)c2)C([2H])([2H])C1([2H])[2H])C([2H])([2H])[2H]` [Compound 20, 3-chloro-5-fluoro-N-[[2,2,3,3,4,5,5,6,6-nonadeuterio-1-[2-oxo-2-[[2,2,2-trideuterio-1-methyl-1-(trideuteriomethyl)ethyl]amino]ethyl]-4-piperidyl]methyl]benzamide], for which the hepatocyte CLint at 1 μM in data set [1] (human) was found to be 0.803 µL/min/1e6 cells. Besides, in data set [2], the Half-Life stood at 38.33 h and the “% of Control (intrinsic clearance relative to the control compound)” value worked out at 56.7%. Besides, in data set [3], the “% of Control (intrinsic clearance relative to the control compound)” value came to 61.5%, the Half-Life stood at 0.213 h and the CLint was 1.08 µL/min/pmol.

`[2H]C([2H])(C(=O)NC(C)(C)C([2H])([2H])[2H])N1CCC(CNC(=O)c2cc(F)cc(Cl)c2)CC1` [Compound 21, 3-chloro-N-[[1-[1,1-dideuterio-2-oxo-2-[(2,2,2-trideuterio-1,1-dimethyl-ethyl)amino]ethyl]-4-piperidyl]methyl]-5-fluoro-benzamide] displayed a hepatocyte CLint at 1 μM in data set [1] (human) of 1.46 µL/min/1e6 cells. Further, in data set [2], the Half-Life amounted to 21.17 h and the “% of Control (intrinsic clearance relative to the control compound)” value turned out to be 103%. In addition, in data set [3], the “% of Control (intrinsic clearance relative to the control compound)” value was 94.4%, the Half-Life came to 0.138 h and the CLint turned out to be 1.66 µL/min/pmol.

Regarding `[2H]C1([2H])CC(CNC(=O)c2cc(F)cc(Cl)c2)CC([2H])([2H])N1CC(=O)NC(C)(C)C([2H])([2H])[2H]` [Compound 22, 3-chloro-5-fluoro-N-[[2,2,6,6-tetradeuterio-1-[2-oxo-2-[(2,2,2-trideuterio-1,1-dimethyl-ethyl)amino]ethyl]-4-piperidyl]methyl]benzamide], in data set [1] (human), the intrinsic clearance (hepatocyte CLint) at 1 μM came to 0.872 µL/min/1e6 cells. In data set [2], the Half-Life worked out at 35.33 h and the “% of Control (intrinsic clearance relative to the control compound)” value was 62.6%. In addition, in data set [3], the “% of Control (intrinsic clearance relative to the control compound)” value turned out to be 87.5%, the Half-Life came to 0.15 h and the CLint turned out to be 1.54 µL/min/pmol.

Regarding `[2H]C1([2H])CN(CC(=O)NC(C)(C([2H])([2H])[2H])C([2H])([2H])[2H])CC([2H])([2H])C1CNC(=O)c1cc(F)cc(Cl)c1` [Compound 23, 3-chloro-5-fluoro-N-[[3,3,5,5-tetradeuterio-1-[2-oxo-2-[[2,2,2-trideuterio-1-methyl-1-(trideuteriomethyl)ethyl]amino]ethyl]-4-piperidyl]methyl]benzamide], in data set [1] (human), the intrinsic clearance (hepatocyte CLint) at 1 μM was 0.908 µL/min/1e6 cells. Moreover, in data set [2], the Half-Life is 34 h and the “% of Control (intrinsic clearance relative to the control compound)” value turned out to be 65.2%. Further, in data set [3], the “% of Control (intrinsic clearance relative to the control compound)” value was 86.2%, the Half-Life turned out to be 0.152 h and the CLint was found to be 1.52 µL/min/pmol.

Take `CC(C)(C)NC(=O)CN1CCC(CNC(=O)c2cc(F)cc(Cl)c2)CC1` [Control, reference compound]: the intrinsic clearance (hepatocyte CLint) at 1 μM in data set [1] (human) is 1.42 µL/min/1e6 cells. Besides, in data set [2], the Half-Life was found to be 22.17 h and the “% of Control (intrinsic clearance relative to the control compound)” value stood at 100%. Also, in data set [3], the “% of Control (intrinsic clearance relative to the control compound)” value was 100%, the Half-Life came to 0.132 h and the CLint turned out to be 1.76 µL/min/pmol.
